Measured values as given in US20080176932A1, “Pharmaceutical Compositions Containing Baicalein And Baicalin With Synergistic Effect In Tumor Treatment” (priority 2005, published 2008).
Like-named read-outs stand apart in the source and are kept apart here.

Key:
[1] = system: human liver cancer cell line HepG2; assay: MTT growth inhibition, baicalein and baicalin single or combination; type: cell-based
From the text: The results of experiments with human liver cancer cell line HepG2 are illustrated in Table 1;

[2] = system: Human colon cancer cell line HCT116; assay: as above; type: cell-based
From the text: Human colon cancer cell line HCT116—Table 2;

[3] = system: Human hung cancer cell line A549; assay: as above; type: cell-based
From the text: Human hung cancer cell line A549—Table 3;

[4] = system: Human gastric cancer cell line MKN28; assay: as above; type: cell-based
From the text: Human gastric cancer cell line MKN28—Table 4;

[5] = system: Human leukemia cell line HL60; assay: as above; type: cell-based
From the text: Human leukemia cell line HL60—Table 8.

[6] = system: Murine melanoma cell line B 16; assay: Solid tumor transplant model, baicalein and baicalin; type: in vivo; conditions: B16 mice, day 1-10; for Final Tumor WT. (g) Mean ± SD / Tumor Growth Inhibition %: day 15
Protocol: C57BL/6 female mice (weight approximately 20 g) were used in this study. Murine melanoma cell line B 16 cells, 2×10^6 tumor cells were implanted s.c. into the armpit of each mice after two passenges in vitro cultured. On the next day after implantation, mice were randomly grouped at 10 per group and received 0.1 ml/10 g weight of the drugs. […] The number of mice of each group was 10. Mice were weighed before and post the treatment. Animals were killed on day 15, and the tumors were removed and weighted.

L1210 cells = type: in vivo; conditions: day 1-10; for ILS(%) increase of life span: L1210 mice
Protocol: L1210 cells on the growth phase were injected at 1×10^5 cells via I.P. into BDF1 female mice (weight approximately 20 g). The next day of implantation, mice were grouped, and received an injection of 0.1 ml/10 g weight of the drug. […] The number of mice of each group was 10. Mice were weighed before and after the treatment. Survival time of each mouse was recorded. The results of changes in increasing of life span of mice were used in assessment of response. The increase of life span was determined as; increase of life span rate=(median survival time of treated animals/median survival time of control animals−1)×100%, the data were analyzed by t-test.

[7] = system: Human esophagus cancer cell line TE2
[8] = system: Human breast cancer cell line MCF-7
[9] = system: Human prostate cancer cell line PC3

O=C(O)[C@H]1O[C@@H](Oc2cc3oc(-c4ccccc4)cc(=O)c3c(O)c2O)[C@H](O)[C@@H](O)[C@@H]1O [BG, baicalin]
Inhibition of cell growth (%) ([1]; single dose 2.5 μm): 16.63 ± 2%
Inhibition of cell growth (%) ([1]; single dose 5 μm): 16.8 ± 2%
Inhibition of cell growth (%) ([1]; single dose 10 μm): 34.93 ± 3.8%
Inhibition of cell growth (%) ([1]; single dose 20 μm): 50 ± 2.9%
Inhibition of cell growth (%) ([1]; single dose 40 μm): 86.69 ± 3%
Inhibition of cell growth (%) ([2]; single dose 2.5 μm): 17 ± 2%
Inhibition of cell growth (%) ([2]; single dose 5 μm): 20 ± 3.2%
Inhibition of cell growth (%) ([2]; single dose 10 μm): 27 ± 3%
Inhibition of cell growth (%) ([2]; single dose 20 μm): 33.75 ± 3%
Inhibition of cell growth (%) ([2]; single dose 40 μm): 90 ± 2%
Inhibition of cell growth (%) ([3]; single dose 2.5 μm): 9.8 ± 2%
Inhibition of cell growth (%) ([3]; single dose 5 μm): 17 ± 3%
Inhibition of cell growth (%) ([3]; single dose 10 μm): 30.58 ± 3.2%
Inhibition of cell growth (%) ([3]; single dose 20 μm): 53.58 ± 4%
Inhibition of cell growth (%) ([3]; single dose 40 μm): 92 ± 3%
Inhibition of cell growth (%) ([4]; single dose 2.5 μm): 5.2 ± 2%
Inhibition of cell growth (%) ([4]; single dose 5 μm): 12 ± 3%
Inhibition of cell growth (%) ([4]; single dose 10 μm): 30.2 ± 2.9%
Inhibition of cell growth (%) ([4]; single dose 20 μm): 62 ± 3.2%
Inhibition of cell growth (%) ([4]; single dose 40 μm): 85.22 ± 2%
Inhibition of cell growth (%) ([5]; single dose 2.5 μm): 5 ± 2%
Inhibition of cell growth (%) ([5]; single dose 5 μm): 8.6 ± 3%
Inhibition of cell growth (%) ([5]; single dose 10 μm): 21 ± 4%
Inhibition of cell growth (%) ([5]; single dose 20 μm): 45.1 ± 2.9%
Inhibition of cell growth (%) ([5]; single dose 40 μm): 82.7 ± 2.3%
Final Tumor WT. (g) Mean ± SD ([6]; BG 25 mg/kg i.p.): 1.81 ± 0.1 g
Tumor Growth Inhibition % ([6]; BG 25 mg/kg i.p.): 16.97%
Final Tumor WT. (g) Mean ± SD ([6]; BG 50 mg/kg i.p.): 1.77 ± 0.117 g
Tumor Growth Inhibition % ([6]; BG 50 mg/kg i.p.): 18.8%
Final Tumor WT. (g) Mean ± SD ([6]; BG 100 mg/kg i.p.): 1.51 ± 0.11 g
Tumor Growth Inhibition % ([6]; BG 100 mg/kg i.p.): 30.7%
Final Tumor WT. (g) Mean ± SD ([6]; BG 200 mg/kg i.p.): 1.28 ± 0.07 g
Tumor Growth Inhibition % ([6]; BG 200 mg/kg i.p.): 41.28%
Weight Change % ([6]; BG 25 mg/kg i.p.): <5%
Weight Change % ([6]; BG 50 mg/kg i.p.): <5%
Weight Change % ([6]; BG 100 mg/kg i.p.): <5%
Weight Change % ([6]; BG 200 mg/kg i.p.): <5%
Number of mice Surviving through 15 days/total number (L1210 cells; BG 25 mg/kg i.p.): 10/10
Number of mice Surviving through 15 days/total number (L1210 cells; BG 50 mg/kg i.p.): 10/10
Number of mice Surviving through 15 days/total number (L1210 cells; BG 100 mg/kg i.p.): 10/10
Number of mice Surviving through 15 days/total number (L1210 cells; BG 200 mg/kg i.p.): 10/10
ILS(%) increase of life span (L1210 cells; BG 25 mg/kg i.p.): 17.3%
ILS(%) increase of life span (L1210 cells; BG 50 mg/kg i.p.): 27.55%
ILS(%) increase of life span (L1210 cells; BG 100 mg/kg i.p.): 38.27%
ILS(%) increase of life span (L1210 cells; BG 200 mg/kg i.p.): 50%
Inhibition of cell growth (%) ([7]; single dose 2.5 μm): 6.2 ± 1.8%
Inhibition of cell growth (%) ([7]; single dose 10 μm): 28.2 ± 2.5%
Inhibition of cell growth (%) ([7]; single dose 20 μm): 49.8 ± 1.78%
Inhibition of cell growth (%) ([7]; single dose 40 μm): 72.7 ± 2.1%
Inhibition of cell growth (%) ([8]; single dose 2.5 μm): 0.5 ± 2.7%
Inhibition of cell growth (%) ([8]; single dose 5 μm): 10.2 ± 1%
Inhibition of cell growth (%) ([8]; single dose 10 μm): 48.02 ± 2%
Inhibition of cell growth (%) ([8]; single dose 20 μm): 60.35 ± 3%
Inhibition of cell growth (%) ([9]; single dose 2.5 μm): 1 ± 3%
Inhibition of cell growth (%) ([9]; single dose 5 μm): 17.9 ± 5%
Inhibition of cell growth (%) ([9]; single dose 10 μm): 47 ± 8%
Inhibition of cell growth (%) ([9]; single dose 20 μm): 62 ± 7%
Inhibition of cell growth (%) ([9]; single dose 40 μm): 88 ± 7%
